This assay concerns adjuvant-induced arthritis. In words: Inhibition of adjuvant-induced arthritis (hind paw swelling). The assay is classed as in vivo, Male SD rats. The note with it: 5 consecutive days from day 17 after adjuvant. The text has this:
Inhibition of adjuvant-induced arthritis
Male SD rats were used as test subjects. Heat-kllled Mycobacterium butyricum suspended in liquid paraffin in a concentration of 0.5% was subcutaneously injected into the right hind paw of each rat. After 17 days, animals showing the clear onset of secondary inflammation also in the left hind paw were selected, and each compound of the present invention suspended in a 0.5% methyl cellulose solution was orally administered to the animals for 5 consecutive days. The volume of each hind paw at the completion of the administration was compared with that at the beginning of the administration, and the swelling-inhibitory effect was evaluated by the difference between them.

Setting [1] is: oral dose 50 mg/kg, volume at completion vs beginning of administration.

This note sets out measurements from patent EP1201661A1, “HETEROAROMATIC RING COMPOUNDS” (Sumitomo Pharmaceuticals Company, Limited, priority 1999, dated 2001).

Regarding `CNC(=Nc1cc(C(C)c2cccc(C(=O)c3ccccc3)c2)ns1)N1CCOCC1.Cl` (stereo not shown) [Experiment 1, N'-{3-[1-(3-Benzoylphenyl)ethyl]-5-isothiazolyl}-N-methyl-4-morpholine carboximidamide hydrochloride], under setting [1], the “Increase of edema volume (ml) Injected paw” value (“Increase … (ml) Injected paw” below) amounted to 0.12 mL and the “Increase of edema volume (ml) Non-injected paw” value (“Increase … (ml) Non-injected paw” for short) worked out at 0.02 mL.
For `CC(c1ccc(-c2ccccc2)c(F)c1)c1cc(N=C(N)N2CCOCC2)n(C)n1.Cl.Cl` (stereo not shown) [Experiment 49, N'-{3-[1-(2-Fluoro[1,1'-biphenyl]-4-yl)ethyl]-1-methyl-1H-pyrazol-5-yl}-4-morpholinecarboximidamide dihydrochloride], in that order: -0.24 mL and -0.17 mL.
Consider `CC(c1cccc(C(=O)c2ccccc2)c1)c1nc(N=C(N(C)C)N2CCOCC2)ns1.Cl` (stereo not shown) [Experiment 73, N'-{5-[1-(3-Benzoylphenyl)ethyl]-1,2,4-thiadiazol-3-yl}-N,N-dimethyl-4-morpholinecarboximidamide hydrochloride], for which, under setting [1], the “Increase … (ml) Injected paw” value is -0.95 mL and the “Increase … (ml) Non-injected paw” value was -0.78 mL.
For `CCNC(=Nc1nc(C(C)c2cccc(C(=O)c3ccccc3)c2)n[nH]1)N1CCOCC1.Cl` (stereo not shown) [Experiment 75, N'-{3-[1-(3-Benzoylphenyl)ethyl]-1H-1,2,4-triazol-5-yl}-N-ethyl-4-morpholinecarboximidamide hydrochloride], under setting [1], the “Increase … (ml) Injected paw” value is -1.08 mL and the “Increase … (ml) Non-injected paw” value was -0.53 mL.
Turning to `CC(c1cccc(C(=O)c2ccccc2)c1)c1n[nH]c(N)n1.Cl` (stereo not shown) [Experiment 320, {3-[1-(5-Amino-1H-1,2,4-triazol-3-yl)ethyl]phenyl}(phenyl)methanone hydrochloride], for the setting “oral dose 25 mg/kg”, the “Increase … (ml) Injected paw” value is -1.20 mL and the “Increase … (ml) Non-injected paw” value was -0.53 mL.
